Drawing on BindingDB's records for PubMed 1356154 (Dupont Pharmaceuticals, 1992), this text covers Ki for 4 compounds.

Where “and” joins values, the source holds several entries; their conditions need not be identical. Identical values can stand only once.

Sequence of D(2) dopamine receptor (P61169 whole entry): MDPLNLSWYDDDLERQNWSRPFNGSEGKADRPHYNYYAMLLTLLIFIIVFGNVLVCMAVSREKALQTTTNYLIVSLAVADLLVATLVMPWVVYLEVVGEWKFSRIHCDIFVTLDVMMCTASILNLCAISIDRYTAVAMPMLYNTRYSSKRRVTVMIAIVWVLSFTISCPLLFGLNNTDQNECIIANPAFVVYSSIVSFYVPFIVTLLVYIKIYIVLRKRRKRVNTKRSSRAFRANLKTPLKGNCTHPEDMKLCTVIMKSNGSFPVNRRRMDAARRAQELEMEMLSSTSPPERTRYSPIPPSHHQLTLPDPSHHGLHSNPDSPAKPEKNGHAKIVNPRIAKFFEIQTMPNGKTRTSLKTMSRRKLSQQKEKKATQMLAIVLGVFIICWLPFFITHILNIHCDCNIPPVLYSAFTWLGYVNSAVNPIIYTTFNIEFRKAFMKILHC

The experiment concerns the target D(2) dopamine receptor (Rattus norvegicus, UniProt P61169).
What is called Ki is the dissociation constant of the complex between target and ligand, obtained from inhibition or displacement. Higher therefore signals lower affinity. Consider `NC1CCc2cc(O)c(O)cc2C1` (centres undefined), for which the Ki is 6.1 nM and 24 nM.
In the case of `CC(C)C[C@H]1C(=O)N2CCC[C@H]2[C@]2(O)O[C@](NC(=O)[C@@H]3C=C4c5cccc6[nH]c(Br)c(c56)C[C@H]4N(C)C3)(C(C)C)C(=O)N12` [Bromocriptine+ (GTP+)] it was 83 nM and 54 nM.
In the case of `CN(C)CCCSc1ccccc1NC(=O)/C=C/c1ccccc1` [CINANSERIN] it was more than 10000 nM.
In the case of `O=C(O)c1ccccc1C(=O)Nc1cccc2ccccc12` [NPA,(+)] it was 4.8 nM.
